Measurements from patent US20050059585A1, “Methionine aminopeptidase-2 inhibitors and methods of use thereof” (Praecis Pharmaceuticals Inc., priority 2000, published 2005).

Key:
Assay in all cases: tumor cell line panel, SRB growth assay
Format in all cases: cell-based
SK-MEL-2 = details: Homo sapiens; SK-MEL-2, Melanoma, 48 hours
Method: (§1) The compound of example 5 was also evaluated against a panel of cancer cell lines (Alley, M.C. et al. […] Cancer Research 48: 589-601; Grever, M. R., et al. (1992) Seminars in Oncology, Vol. 19, No. 6, pp 622-638; Boyd, M. R., and Paull, K. D. (1995) Drug Development Research 34: 91-109). The human tumor cell lines of the cancer screening panel were grown in RPMI 1640 medium containing 5% fetal bovine serum and 2 mM L-glutamine. Cells were inoculated into 96 well microtiter plates in 100 μL at plating densities ranging from 5,000 to 40,000 cells/well depending on the doubling time of individual cell lines. After cell inoculation, the microtiter plates were incubated at 37° C., 5 % CO2, 95 % air and 100 % relative humidity for 24 hours prior to addition of experimental drugs.
(§2) After the 24 hour incubation period, two plates of each cell line were fixed in situ with TCA, to represent a measurement of the cell population for each cell line at the time of drug addition (Tz). Experimental drugs were solubilized in dimethyl sulfoxide at 400-fold the desired final maximum test concentration and stored frozen prior to use. At the time of drug addition, an aliquot of frozen concentrate was thawed and diluted to twice the desired final maximum test concentration with complete medium containing 50 μg/ml gentamicin. Additional four, 10-fold or ½ log serial dilutions were made to provide a total of five drug concentrations plus control. Aliquots of 100 μl of these different drug dilutions were added to the appropriate microtiter wells already containing 100 μl of medium, resulting in the required final drug concentrations.
(§3) Following drug addition, the plates were incubated for an additional 48 hours at 37° C., 5 % CO2, 95 % air, and 100 % relative humidity. For adherent cells, the assay was terminated by the addition of cold TCA. Cells were fixed in situ by the gentle addition of 50 μl of cold 50 % (w/v) TCA (final concentration, 10% TCA) and incubated for 60 minutes at 4° C. The supernatant was discarded, and the plates were washed five times with tap water and air dried. Sulforhodamine B (SRB) solution (100 μl) at 0.4 % (w/v) in 1 % acetic acid were added to each well, and plates were incubated for 10 minutes at room temperature. After staining, unbound dye was removed by washing five times with 1 % acetic acid and the plates were air dried. Bound stain was subsequently solubilized with 10 mM trizma base, and the absorbance was read on an automated plate reader at a wavelength of 515 nm. For suspension of the cells, the methodology used was the same except that the assay was terminated by fixing settled cells at the bottom of the wells by gently adding 50 μl of 80 % TCA (final concentration, 16% TCA). Using the seven absorbance measurements [time zero, (Tz), control growth, (C), and test growth in the presence of drug at the five concentration levels (Ti)], the percentage growth was calculated at each of the drug concentrations levels.
(§4) Percentage growth inhibition was calculated as: [(Ti−Tz)/(C−Tz)]×100 for concentrations for which Ti>/=Tz [(Ti−Tz)/Tz]×100 for concentrations for which Ti<Tz.
(§5) Growth inhibition of 50% (GI50) was calculated from [(Ti−Tz)/(C−Tz)]×100=50, which is the drug concentration resulting in a 50% reduction in the net protein increase (as measured by SRB staining) in control cells during the drug incubation. The G150 was calculated for each of the cell lines if the level of activity is reached; however, if the effect was not reached or is exceeded, the value for that parameter is expressed as greater or less than the maximum (10^−4 M) or minimum (10^−8 M) concentration tested.

SK-MEL-5 = details: Homo sapiens; SK-MEL-5, Melanoma, 48 hours
Method: as §1, §2, §3, §4, §5

MCF7 = details: Homo sapiens; MCF7, Breast, 48 hours
Method: as §1, §2, §3, §4, §5

OVCAR-5 = details: Homo sapiens; OVCAR-5, Ovarian, 48 hours
Method: as §1, §2, §3, §4, §5

KM12 = details: Homo sapiens; KM12, Colon, 48 hours
Method: as §1, §2, §3, §4, §5

OVCAR-8 = details: Homo sapiens; OVCAR-8, Ovarian, 48 hours
Method: as §1, §2, §3, §4, §5

NCI-H226 = details: Homo sapiens; NCI-H226, Non-Small Cell Lung, 48 hours
Method: as §1, §2, §3, §4, §5

HL-60(TB) = details: Homo sapiens, Leukemia, 48 hours
Method: as §1, §2, §3, §4, §5

SK-OV-3 = details: Homo sapiens; SK-OV-3, Ovarian, 48 hours
Method: as §1, §2, §3, §4, §5

UACC-62 = details: Homo sapiens; UACC-62, Melanoma, 48 hours
Method: as §1, §2, §3, §4, §5

SNB-75 = details: Homo sapiens; SNB-75, CNS, 48 hours
Method: as §1, §2, §3, §4, §5

MALME-3M = details: Homo sapiens, Melanoma, 48 hours
Method: as §1, §2, §3, §4, §5

786-0 = details: Homo sapiens; 786-0, Renal, 48 hours
Method: as §1, §2, §3, §4, §5

RPMI-8226 = details: Homo sapiens; RPMI-8226, Leukemia, 48 hours
Method: as §1, §2, §3, §4, §5

SF-295 = details: Homo sapiens; SF-295, CNS, 48 hours
Method: as §1, §2, §3, §4, §5

NCI-H460 = details: Homo sapiens; NCI-H460, Non-Small Cell Lung, 48 hours
Method: as §1, §2, §3, §4, §5

SK-MEL-28 = details: Homo sapiens; SK-MEL-28, Melanoma, 48 hours
Method: as §1, §2, §3, §4, §5

NCI-H23 = details: Homo sapiens; NCI-H23, Non-Small Cell Lung, 48 hours
Method: as §1, §2, §3, §4, §5

MDA-N = details: Homo sapiens, Breast, 48 hours
Method: as §1, §2, §3, §4, §5

CAKI-1 = details: Homo sapiens; CAKI-1, Renal, 48 hours
Method: as §1, §2, §3, §4, §5

A498 = details: Homo sapiens; A498, Renal, 48 hours
Method: as §1, §2, §3, §4, §5

Compound: CO[C@@H]1[C@H](OC(=O)N[C@@H](C(N)=O)C(C)C)CC[C@]2(CO2)[C@H]1[C@@]1(C)O[C@@H]1CC=C(C)C [Example 5, (1-Carbamoyl-2-methyl-propyl)-carbamic acid-(3R, 4S, 5S, 6R )-5-methoxy-4-[(2R, 3R)-2-methyl-3-(3-methyl-but-2-enyl)-oxiranyl]-1-oxa-spiro[2.5]oct-6-yl ester]
- GI50 (SK-MEL-2): > 100 µM
- GI50 (SK-MEL-5): > 100 µM
- GI50 (MCF7): 12.4 µM
- GI50 (OVCAR-5): 0.0135 µM
- GI50 (KM12): < 0.01 µM
- GI50 (OVCAR-8): 18.4 µM
- GI50 (NCI-H226): 0.791 µM
- GI50 (HL-60(TB)): 21.7 µM
- GI50 (SK-OV-3): 7.37 µM
- GI50 (UACC-62): < 0.01 µM
- GI50 (SNB-75): 90.9 µM
- GI50 (MALME-3M): 0.0531 µM
- GI50 (786-0): 16.1 µM
- GI50 (RPMI-8226): < 0.01 µM
- GI50 (SF-295): < 0.01 µM
- GI50 (NCI-H460): < 0.01 µM
- GI50 (SK-MEL-28): 5.96 µM
- GI50 (NCI-H23): 6.34 µM
- GI50 (MDA-N): 1.58 µM
- GI50 (CAKI-1): < 0.01 µM
- GI50 (A498): > 100 µM
